# Measured values as given in US9403873B2, “Peptides targeting receptor activator of nuclear factor-κB (RANK) and their applications” (UNIVERSITE DE NANTES, priority 2011, dated 2016).
# “Also recorded” adds a separate entry of the source. Ends that are not written are not given here.
# Assays:
# monocytes = assay: Cytotoxicity on monocytes; type: cell-based; conditions: 100 μM
# [1] = test system: RANKL-induced signaling (Akt, p38, ERK, NF-κB) in RAW264.7 cells; assay: Western blot of RANKL-induced signaling in RAW264.7 cells; type: cell-based, murine
# Experimental: After treatment for 5, 10, 15, 30 or 60 minutes at 37° C., total cell lysates were obtained and protein concentrations were determined as described previously (Duplomb et al. 2008). For NF-κB pathway analysis, separate cytoplasmic and nuclear protein fractions were obtained using the NE-PER Nuclear and Cytoplasmic Extraction Kit (Thermo Scientific, UK). Proteins (40 μg) were run on 10% SDS—PAGE and transferred to Immobilon-P membranes (Millipore, Billerica, Mass., USA), which were then incubated with antibodies to Akt, phospho-Akt, ERK 1/2, phospho-ERK 1/2, p38, phospho-p38, IκBα, p105, p65, p50 and Rel B (Cell Signalling, Danvers, Mass., USA). The labeled proteins were detected using the ECL reagent (Pierce, Rockford, Ill., USA). β-Actin (total cell extract or cytoplasmic fraction), histone H3, and HDAC (nuclear fraction) were used as housekeeping proteins (Cell Signalling).
# (§1) Murine RAW264.7 cells (ATCC) were cultured in αMEM (Invitrogen) supplemented with 10% FBS (Hyclone). Human embryonic kidney 293 cells (ATCC) were stably transduced with an expression-ready clone (Ex-00007-Lv105, OmicsLink™ Expression Clone, GeneCopoeia™) containing the ORF cDNA of RANK/TNFRSF11A. HEK-RANK cells were maintained in DMEM (Lonza), 10% FBS and 1 μg/mL puromycin.
# [2] = test system: ovariectomized C57BL/6 mice; assay: Ovariectomy-induced bone loss in mice, micro-CT of tibiae and L4 vertebrae; type: in vivo, mouse; conditions: 35 days
# Description: Eight-week-old ovariectomized (OVX) female C57BL6 and non-ovariectomized control mice were purchased from Janvier (Le Genest Saint Ilsle, France). Mice were housed under pathogen-free conditions at the Experimental Therapy Unit (Faculty of Medicine, University of Nantes, France), and animal care and experimental protocols were approved by the French Ministry of Research and were done in accordance with the institutional guidelines of the French Ethical Committee and under the supervision of authorized investigators. After recovery from OVX surgery for 7 days and acclimation, the mice were randomly divided into treatment groups receiving daily subcutaneous injections of a peptide and a control group receiving daily injections of the vehicle (PBS) only. Non-ovariectomized or sham-operated mice were included in the studies as healthy controls. Three experimental protocols were established. Protocol 1: Ovariectomized mice received daily s.c. injections of 10 mg/kg body weight Pep8 (Pep8, n=8) or vehicle only (OVX, n=8). Non-ovariectomized (NOV, n=8) mice served as normal controls. Protocol 2: Ovariectomized mice were randomly divided into four groups (n=8), receiving daily treatments with pegylated Pep8 (Pep8-NPEG5) at 10 mg/kg or 2.5 mg/kg, or unpegylated Pep8 at a dose of 10 mg/kg/d, or the vehicle only. Sham-operated mice (n=5) served as healthy controls. Protocol 3: Ovariectomized mice receiving daily treatments with pegylated Pep8 (Pep8-NPEG8) at 10 mg/kg or 2.5 mg/kg, as described before, or unpegylated Pep8 at a lower dose of 2.5 mg/kg/d, or the vehicle only. Sham-operated mice (n=8) served as healthy controls.
# During the experimental period, the body weight of the mice was monitored. […] After treatment for five weeks, mice were anesthetized with isoflurane (2%, 1 L/min) and sacrificed by cervical dislocation. Lumbar vertebrae and tibiae were collected for micro-CT analysis and stored at 4° C. in 4% paraformaldehyde until further analysis. Additionally, internal organs (heart, liver, lungs, kidneys, spleen, intestines and thymus) of some mice (n=3 per group) were harvested and stored for toxicity screening.
# Analysis of architectural variables of tibiae and vertebrae of mice was performed using the high-resolution X-ray micro-CT system for small animal imaging SkyScan-1072 (SkyScan, Belgium). After scanning, the image data were transferred to a workstation and the proximal tibiae and the fourth lumbar vertebrae (L4) were rendered for 3-D display and calculation of the structural indices (Parfitt et al. 1987) using the SkyScan analysis system (CT-analyser, CT-volume, SkyScan). For trabecular bone parameters in tibiae, transverse CT slices were obtained in the region of interest in the axial direction from the trabecular bone ca. 0.1 mm below the growth plate to the mid-femur. Contours were defined and drawn close to the cortical bone. The trabecular bone was then removed and analyzed separately. Fifty slices (1 mm) at approximately […] distal to the growth plate of the proximal ends of the tibiae were used for analysis. […] The threshold level for the measurements was set at 55 for the analyses. The analysis of the specimens involved the following bone measurements: bone volume fraction (BV/TV, %), trabecular number (TbN), trabecular thickness (TbTh) and trabecular spacing (TbSp).
# [3] = test system: HEK-RANK cells (human embryonic kidney cells overexpressing RANK); assay: RANK signaling and receptor half-life study in HEK-RANK cells; type: cell-based
# Experimental: (A) Inhibition of activation of Akt, p38 and ERK by Pep8 (50 μM) was assessed as inhibition of phosphorylation (p) in RAW264.7 cells using Western blot analysis with antibodies against phospho-Akt, phospho-p38 and phospho-ERK. Immunoblots were stripped and then reprobed with antibodies against Akt, p38 and ERK. β-Actin served as loading control. (B) Western blot analyses of NF-κB distribution in the presence or absence of 50 μM Pep8. After treatment with the polypeptide, RAW264.7 cells were fractionated into nuclear and cytoplasmic portions. Nuclear proteins (45 μg) were analyzed with anti-NF-κB p105, p50 and p65 antibodies, while cytoplasmic proteins (30 μg) were analyzed with anti-IκBα. For the non-canonical NF-κB pathway, RelB expression was analyzed in both fractions. β-Actin, HDAC1 and Histone H3 served as loading controls for the cytoplasmic and nuclear fractions, respectively. A representative experiment is shown; time after RANKL stimulation is indicated in parenthesis. (C) Receptor half-life study. […] RANK expression was determined with anti-RANK/TNFRSF11A.
# as §1, with “HEK-RANK cells were maintained in DMEM (Lonza), 10% FBS and 1 μg/mL puromycin.” left out
# [4] = 50 μM, 15 minutes of RANKL treatment
# [5] = 10 mg/kg/day s.c., vs vehicle-treated OVX mice
sequence,measurement,setting,value
"NVLKLCSGE [Pep8, NVLKLCSGE]",cytotoxic effect,monocytes,no cytotoxic effect
same,RANKL-induced degradation of IκBα and nuclear translocation of p50 and p65,[1]; 50 μM,blocked
same,expression levels of RelB in cytoplasmic and nuclear fraction,[1]; 50 μM,no effect
same,RANKL-induced Akt phosphorylation,"[1]; 50 μM, 5 minutes of RANKL treatment",exhibited an inhibitory effect
same,RANKL-induced phosphorylation of ERK,[1]; [4],inhibited phosphorylation
same,RANKL-induced phosphorylation of p38,[1]; [4],inhibited phosphorylation
same,basal phosphorylation of p38,[1]; absence of RANKL stimulation,decreased phosphorylation of p38 even in the absence of RANKL stimulation
same,"protection against OVX-induced trabecular bone loss (μCT, tibiae)",[2]; 2.5 mg/kg/d s.c.,less efficient
same,"trabecular BV/TV and TbN, tibiae","[2]; 2.5 mg/kg/d, vs vehicle","only slightly, but not significantly increasing"
same,protection against OVX-induced trabecular bone loss (μCT),[2]; 10 mg/kg/d s.c.,prevented the loss of trabecular bone; also recorded: overall increase in trabecular bone density
same,"increase of TbN, proximal tibia",[2]; [5],71%
same,"increase of TbTh, proximal tibia",[2]; [5],14%
same,"increase of trabecular BV/TV, proximal tibia",[2]; [5],93%
same,"TbS, proximal tibia","[2]; 10 mg/kg/day s.c., vs vehicle-treated mice",decline
same,"TbN, lumbar vertebrae",[2]; 10 mg/kg/day,increased
same,"TbS, lumbar vertebrae",[2]; 10 mg/kg/day,reduced
same,"TbTh, lumbar vertebrae","[2]; 10 mg/kg/day, vs OVX control mice","slightly, but not statistically significantly increased"
same,vertebral trabecular BV/TV,"[2]; lumbar vertebrae, 10 mg/kg/day",lower in OVX than Pep8-treated mice
same,activation of p38 after stimulation with RANKL,[3],strongly inhibited
same,degradation of RANK in presence of cycloheximide,"[3]; CHX 4 μg/mL, Pep8 200 μM, compared with RANKL","lead to a degradation of RANK, although to a somewhat lesser extent"
